In paper PMC9045277, “Quercetin Reduces the Virulence of S. aureus by Targeting ClpP to Protect Mice from MRSA-Induced Lethal Pneumonia” (Microbiology Spectrum, 2022):

Target: T1, ClpP (Staphylococcus aureus, UniProt Q2G036)
T1 construct: pET28a-clpP, purified from E. coli BL21(DE3)
Experiment: biochemical
Details: read-out: Relative inhibition rate (%)
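Further: ClpP peptidase activity measured as fluorescence (ex 360 nm, em 465 nm) from cleavage of Suc-LY-AMC substrate at 100 µM, 30 min at 32°C.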

T1 sequence (Q2G036 whole entry): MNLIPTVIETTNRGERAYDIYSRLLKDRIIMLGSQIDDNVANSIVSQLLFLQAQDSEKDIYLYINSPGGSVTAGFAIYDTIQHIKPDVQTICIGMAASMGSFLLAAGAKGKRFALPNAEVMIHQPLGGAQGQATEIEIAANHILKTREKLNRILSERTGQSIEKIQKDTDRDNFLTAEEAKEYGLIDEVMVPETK
Protocol: This property was exploited to screen the available laboratory library of small molecules for ClpP inhibitors. First, 10 μM ClpP and 64 μg/mL of the small molecule compound were added to a black opaque 96-well plate containing 100 μL of ClpP buffer (100 mM HEPES,100 mM NaCl) and incubated for 1 h at room temperature. Afterward, 100 μM Suc-LeuTyr-AMC (Cat number S1153, Sigma-Aldrich, St. Louis, MO, USA) was added to 96-well plates and incubated for 30 min at 32°C. Finally, the fluorescence values were detected by Infinite M200 (360 nm excitation/465 nm emission). […] Since the fluorescent substrate Suc-LY-AMC can be used to detect the activity of ClpP protein, we screened a library of natural products available in our laboratory.

O=C1O[C@H]2[C@@H]3OC(=O)c4cc(O)c(O)c(O)c4-c4c(O)c(O)c5oc(=O)c6c(c(O)c(O)c7oc(=O)c4c5c76)-c4c(cc(O)c(O)c4O)C(=O)OC[C@H]3OC(O)[C@@H]2OC(=O)c2cc(O)c(O)c(O)c2-c2c1cc(O)c(O)c2O (mixture of isomers) [Punicalagin] was tested, and the inhibition at 64 µg/mL was 28.3 ± 3.67%.

For COc1ccc(-c2cc(=O)c3c(O)c(OC)c(OC)cc3o2)cc1O [3',5-Dihydroxy-4',6,7-trimethoxyflavone], the inhibition at 64 µg/mL was 55.8 ± 2.5%.

Work on O=c1ccc2cc(O)c(O)cc2o1 [6,7-Dihydroxycoumarin] yielded an inhibition at 64 µg/mL of 19.6 ± 3.54%.

In the case of CC1=CC(=O)CC(C)(C)[C@@]1(O)/C=C/C(C)=C\C(=O)O [Abscisic acid], the inhibition at 64 µg/mL is reported as 0.8 ± 3.42%.

In the case of O=C1c2ccccc2C(=O)c2c1ccc(O)c2O [Alizarin], the inhibition at 64 µg/mL is reported as 56.6 ± 5.28%.

With C=C1CC[C@@H]2[C@](C)(CO)[C@H](O)CC[C@@]2(C)[C@@H]1C/C=C1/C(=O)OC[C@H]1O [Andrographolide] the inhibition at 64 µg/mL was 15.8 ± 0.72%.

COc1ccc(-c2cc(=O)c3c(O)cc(OC)cc3o2)cc1 [Apigenin 7,4'-dimethyl ether] was tested, and the inhibition at 64 µg/mL was 18.4 ± 1.24%.

With O=c1cc(-c2ccc(O)cc2)oc2cc(O)cc(O)c12 [Apigenin] the inhibition at 64 µg/mL was 13.6 ± 0.52%.

For C[C@@H]1CC[C@H]2[C@@H](C)C(=O)O[C@@H]3O[C@@]4(C)CC[C@@H]1[C@]32OO4 [Artemisinin], the inhibition at 64 µg/mL was 4.9 ± 4.21%.

Work on CC(=O)OCC1=C[C@@H]2OC(=O)C3=CO[C@@H](O[C@@H]4O[C@H](CO)[C@@H](O)[C@H](O)[C@H]4O)[C@H]1[C@@H]32 [Asperuloside] yielded an inhibition at 64 µg/mL of 17.4 ± 2.31%.

With C[C@@H]1O[C@@H](O[C@H]2C(=O)c3c(O)cc(O)cc3O[C@@H]2c2ccc(O)c(O)c2)[C@H](O)[C@H](O)[C@H]1O [Astilbin] the inhibition at 64 µg/mL was 9.1 ± 2.73%.

In the case of O=c1c(O[C@@H]2O[C@H](CO)[C@@H](O)[C@H](O)[C@H]2O)c(-c2ccc(O)cc2)oc2cc(O)cc(O)c12 [Astragalin], the inhibition at 64 µg/mL is reported as 51.3 ± 1.73%.

O=c1c(O[C@@H]2O[C@@H](CO)[C@H](O)[C@H]2O)c(-c2ccc(O)c(O)c2)oc2cc(O)cc(O)c12 [Avicularin] gave an inhibition at 64 µg/mL of 46 ± 1.22%.

In the case of CC(=O)O[C@H]1C(=O)[C@@]2(C)[C@H]([C@H](OC(=O)c3ccccc3)[C@]3(O)C[C@H](O)C(C)=C1C3(C)C)[C@]1(OC(C)=O)CO[C@@H]1C[C@@H]2O [Baccatin III], the inhibition at 64 µg/mL is reported as 7.2 ± 3.26%.

Work on O=C(O)[C@H]1O[C@@H](Oc2cc3oc(-c4ccccc4)cc(=O)c3c(O)c2O)[C@H](O)[C@@H](O)[C@@H]1O [Baicalin] yielded an inhibition at 64 µg/mL of 27.3 ± 0.55%.

Molecule O=c1c(O[C@@H]2O[C@H](CO)[C@@H](O)[C@H](O)[C@H]2O[C@@H]2O[C@H](CO)[C@@H](O)[C@H](O)[C@H]2O)c(-c2ccc(O)c(O)c2)oc2cc(O)cc(O)c12 [Baimaside] has an inhibition at 64 µg/mL of 25.1 ± 0.69%.

COc1ccc(-c2oc3c(CC=C(C)C)c(O)cc(O)c3c(=O)c2O[C@@H]2O[C@@H](C)[C@H](O)[C@@H](O)[C@H]2O)cc1 [Baohuoside I] gave an inhibition at 64 µg/mL of 37.1 ± 0.59%.

Molecule CC(C)=CCc1cc2c(cc1O)O[C@H](c1ccc(O)cc1)CC2=O [Bavachin] has an inhibition at 64 µg/mL of 21.7 ± 1.75%.

Molecule CC(C)(C)[C@]1(O)C[C@@H]2OC(=O)C[C@@]23C(=O)O[C@@H]2OC(=O)[C@H](O)[C@]213 [Bilobalide] has an inhibition at 64 µg/mL of 17.4 ± 1.76%.

COc1ccc(-c2coc3cc(O)cc(O)c3c2=O)cc1 [Biochanin A] gave an inhibition at 64 µg/mL of 28.2 ± 1.38%.

Oc1ccc2c(c1)OC[C@]1(O)Cc3cc(O)c(O)cc3[C@H]21 [Brazilin] was tested, and the inhibition at 64 µg/mL was 47.2 ± 2.57%.

In the case of COC(=O)[C@@]12OC[C@]34[C@H]([C@@H](O)[C@@H]1O)[C@@]1(C)CC(=O)C(O)=C(C)[C@@H]1C[C@H]3OC(=O)[C@H](OC(C)=O)[C@@H]24 [Bruceine B], the inhibition at 64 µg/mL is reported as 1.6 ± 2.71%.

For COc1ccc(-c2cc(=O)c3c(O)cc(O[C@@H]4O[C@H](CO[C@@H]5O[C@@H](C)[C@H](O)[C@@H](O)[C@H]5O)[C@@H](O)[C@H](O)[C@H]4O)cc3o2)cc1 [Buddleoside], the inhibition at 64 µg/mL was 46.2 ± 1.25%.

In the case of COc1ccc(-c2coc3cc(O[C@@H]4O[C@H](CO)[C@@H](O)[C@H](O)[C@H]4O)ccc3c2=O)cc1O [Calycosin-7-glucoside], the inhibition at 64 µg/mL is reported as 4.2 ± 0.84%.

For COc1ccc(-c2oc3cc(OC)c(OC)c(O)c3c(=O)c2OC)cc1O [Casticin], the inhibition at 64 µg/mL was 56.8 ± 1.22%.

CCC1=C[C@@H]2CN3CCc4c([nH]c5ccccc45)[C@@](C(=O)OC)(C2)[C@@H]13 [Catharanthine] was tested, and the inhibition at 64 µg/mL was 10.3 ± 1.62%.

Work on O=C(/C=C/c1ccc(O)c(O)c1)O[C@@H]1C[C@](O)(C(=O)O)C[C@@H](O)[C@H]1O [Chlorogenic acid] yielded an inhibition at 64 µg/mL of 10.4 ± 1.12%.

With O=c1cc(-c2ccccc2)oc2cc(O)cc(O)c12 [Chrysin] the inhibition at 64 µg/mL was 49 ± 3.18%.

COc1cc(-c2oc3cc(OC)c(OC)c(O)c3c(=O)c2OC)ccc1O [Chrysosplenetin] was tested, and the inhibition at 64 µg/mL was 52.4 ± 0.36%.

CC1(C)CCC2(CO)C(=C3C=CC4C5(C)CCC(OC6OC(COC7OC(CO)C(O)C(O)C7O)C(OC7OC(CO)C(O)C(O)C7O)C(O)C6O)CC5C(C)(CO)CC4(C)C3(C)CC2O)C1 (stereo not shown) [Clinodiside A] gave an inhibition at 64 µg/mL of 16 ± 2.78%.

With COc1cc(O)c2c(=O)c(O[C@@H]3O[C@H](CO)[C@@H](O)[C@H](O)[C@H]3O)c(-c3ccc(O[C@@H]4O[C@H](CO)[C@@H](O)[C@H](O)[C@H]4O)cc3)oc2c1 [Complanatuside] the inhibition at 64 µg/mL was 12.3 ± 0.47%.

Nc1[nH]c(=O)nc2c1ncn2[C@@H]1O[C@H](CO)[C@@H](O)[C@H]1O [Crotonoside] was tested, and the inhibition at 64 µg/mL was 28.1 ± 3.17%.

With O=C(/C=C/c1ccc(O)c(O)c1)O[C@H]1[C@H](O)C[C@](O)(C(=O)O)C[C@H]1O [Cryptochlorogenic acid] the inhibition at 64 µg/mL was 13.7 ± 3.15%.

C[C@@H]1C(=O)O[C@H](C)[C@H]1C[C@@H](O)[C@](C)(O)[C@H]1CC[C@@]2(O)C3=CC(=O)[C@@H]4C[C@@H](O)[C@@H](O)C[C@]4(C)[C@H]3CC[C@]12C [Cyasterone] gave an inhibition at 64 µg/mL of 25.6 ± 2.65%.

For C/C=C/c1cc(OC)c2c(c1)C(C)C(c1ccc(O)c(OC)c1)O2 (stereo not shown) [Dehydrodiisoeugenol], the inhibition at 64 µg/mL was 5.3 ± 0.61%.

COc1ccc([C@@H]2CC(=O)c3c(O)cc(O[C@@H]4O[C@H](CO[C@@H]5O[C@@H](C)[C@H](O)[C@@H](O)[C@H]5O)[C@@H](O)[C@H](O)[C@H]4O)cc3O2)cc1 [Didymin] showed an inhibition at 64 µg/mL of 31.2 ± 0.59%.

With COc1ccc(-c2cc(=O)c3c(O)cc(O)cc3o2)cc1O [Diosmetin] the inhibition at 64 µg/mL was 6.1 ± 1.68%.

COc1ccc(-c2cc(=O)c3c(O)cc(O[C@@H]4O[C@H](CO[C@@H]5O[C@@H](C)[C@H](O)[C@@H](O)[C@H]5O)[C@@H](O)[C@H](O)[C@H]4O)cc3o2)cc1O [Diosmin] showed an inhibition at 64 µg/mL of 31.7 ± 0.92%.

For COc1ccc(-c2oc3c(CC=C(C)C)c(O[C@@H]4O[C@H](CO)[C@@H](O)[C@H](O)[C@H]4O)cc(O)c3c(=O)c2O[C@@H]2O[C@@H](C)[C@H](O)[C@@H](O[C@@H]3O[C@H](CO)[C@@H](O)[C@H](O)[C@H]3O)[C@H]2O)cc1 [Epimedin A1], the inhibition at 64 µg/mL was 26.7 ± 0.81%.

COc1ccc(-c2oc3c(CC=C(C)C)c(O[C@@H]4O[C@H](CO)[C@@H](O)[C@H](O)[C@H]4O)cc(O)c3c(=O)c2O[C@@H]2O[C@@H](C)[C@H](O)[C@@H](O)[C@H]2O[C@@H]2OC[C@@H](O)[C@H](O)[C@H]2O)cc1 [Epimedin B] gave an inhibition at 64 µg/mL of 29.1 ± 2.01%.

Cc1c(O)c(C)c2c(c1O)C(=O)C[C@@H](c1ccc(O)cc1)O2 [Farrerol] was tested, and the inhibition at 64 µg/mL was 33.5 ± 0.73%.

Molecule COc1ccc(/C=C/C(=O)c2c(O)cc(OC)cc2OC)cc1 [Flavokawain A] has an inhibition at 64 µg/mL of 2.6 ± 1.17%.

For COc1cc2ccc(=O)oc2c(O)c1O [Fraxetin], the inhibition at 64 µg/mL was 50.3 ± 4.62%.

Molecule O=c1c(-c2ccc(O)cc2)coc2cc(O)cc(O)c12 [Genistein] has an inhibition at 64 µg/mL of 33.5 ± 0.65%.

For O=c1c(-c2ccc(O)cc2)coc2cc(O[C@@H]3O[C@H](CO)[C@@H](O)[C@H](O)[C@H]3O)cc(O)c12 [Genistin], the inhibition at 64 µg/mL was 22.1 ± 0.63%.

For COc1cc(O)c2c(=O)cc(-c3ccc(O)cc3)oc2c1 [Genkwanin], the inhibition at 64 µg/mL was 13.7 ± 0.58%.

With COc1cc2c(=O)c(-c3ccc(O)cc3)coc2cc1O[C@@H]1O[C@H](CO)[C@@H](O)[C@H](O)[C@H]1O [Glycitin] the inhibition at 64 µg/mL was 18.5 ± 1.26%.

O=Cc1ccc(O[C@@H]2O[C@H](CO)[C@@H](O)[C@@H](O)[C@H]2O)cc1 [Helicid] showed an inhibition at 64 µg/mL of 13.9 ± 3.22%.

Work on Oc1cc2c(cc1O)[C@@H]1c3ccc(O)c(O)c3OC[C@]1(O)C2 [Hematoxylin] yielded an inhibition at 64 µg/mL of 23.9 ± 2.69%.

Molecule O=C1C([C@@H]2O[C@H](CO)[C@@H](O)[C@H](O)[C@H]2O)=C(O)/C(=C(O)/C=C/c2ccc(O)cc2)C(=O)C1(O)[C@@H]1O[C@H](CO)[C@@H](O)[C@H](O)[C@H]1O (stereo partly shown) [Hydroxysafflor yellow A] has an inhibition at 64 µg/mL of 52.4 ± 4.23%.

For COc1ccc(-c2oc3c(CC=C(C)C)c(O[C@@H]4O[C@H](CO)[C@@H](O)[C@H](O)[C@H]4O)cc(O)c3c(=O)c2O[C@@H]2O[C@@H](C)[C@H](O)[C@@H](O)[C@H]2O)cc1 [Icariin], the inhibition at 64 µg/mL was 34.6 ± 1.54%.

COc1cc(-c2coc3cc(O[C@@H]4O[C@H](CO)[C@@H](O)[C@H](O)[C@H]4O)c(OC)c(O)c3c2=O)cc(O)c1OC [Iridin] was tested, and the inhibition at 64 µg/mL was 14.2 ± 1.39%.

Work on O=c1c(-c2ccccc2)coc2ccccc12 [Isoflavone] yielded an inhibition at 64 µg/mL of 20.1 ± 0.73%.

O=c1cc(-c2ccc(O)c(O)c2)oc2cc(O)c([C@@H]3O[C@H](CO)[C@@H](O)[C@H](O)[C@H]3O)c(O)c12 [Isoorientin] gave an inhibition at 64 µg/mL of 50.2 ± 1.58%.

Work on COc1ccc(C(=O)O)cc1O [Isovanillic acid] yielded an inhibition at 64 µg/mL of 13.7 ± 2.43%.

For O=c1c(O)c(-c2ccc(O)cc2)oc2cc(O)cc(O)c12 [Kaempferol], the inhibition at 64 µg/mL was 44 ± 2.75%.

C[C@@H]1O[C@@H](OC[C@H]2O[C@@H](Oc3cc(O)c4c(=O)cc(-c5ccc(O)cc5)oc4c3)[C@H](O[C@@H]3O[C@@H](C)[C@H](O)[C@@H](O)[C@H]3O)[C@@H](O)[C@@H]2O)[C@H](O)[C@H](O)[C@H]1O [Ligustroflavone] gave an inhibition at 64 µg/mL of 26.6 ± 1.16%.

O=C1C[C@@H](c2ccc(O[C@@H]3O[C@H](CO)[C@@H](O)[C@H](O)[C@H]3O)cc2)Oc2cc(O)ccc21 [Liquiritin] was tested, and the inhibition at 64 µg/mL was 3.2 ± 0.97%.

With COC(=O)C1=CO[C@@H](O[C@@H]2O[C@H](CO)[C@@H](O)[C@H](O)[C@H]2O)[C@@H]2[C@@H](C)[C@@H](O)C[C@H]12 [Loganin] the inhibition at 64 µg/mL was 14.7 ± 3.56%.

In the case of COc1ccc(CCC(=O)c2ccc(O)cc2)c(OC)c1 [Loureirin A], the inhibition at 64 µg/mL is reported as 56.5 ± 2.47%.

Molecule COc1cc(OC)c(CCC(=O)c2ccc(O)cc2)c(OC)c1 [Loureirin B] has an inhibition at 64 µg/mL of 29.8 ± 2.24%.
